This note sets out measurements from patent US10130693B2, “Peptides, combination of peptides and scaffolds for use in immunotherapeutic treatment of various cancers” (Immatics Biotechnologies GmbH, priority 2015, dated 2018).

In the test the test system is HLA-A*24. Put plainly: MHC binding assay, UV-ligand exchange with beta2m ELISA (exchange yield), HLA-A*24. Particulars: binding to HLA-A*24, UV-ligand exchange. More on the design: species or system human. An excerpt: Candidate peptides for T cell based therapies according to the present invention were further tested for their MHC binding capacity (affinity). The individual peptide-MHC complexes were produced by UV-ligand exchange, where a UV-sensitive peptide is cleaved upon UV-irradiation, and exchanged with the peptide of interest as analyzed. Only peptide candidates that can effectively bind and stabilize the peptide-receptive MHC molecules prevent dissociation of the MHC complexes. To determine the yield of the exchange reaction, an ELISA was performed based on the detection of the light chain (β2m) of stabilized MHC complexes. The assay was performed as generally described in Rodenko et al. (Rodenko et al., 2006).
96 well MAXISorp plates (NUNC) were coated over night with 2 ug/ml streptavidin in PBS at room temperature, washed 4× and blocked for 1 h at 37° C. in 2% BSA containing blocking buffer. […] Peptide-MHC monomers of the UV-exchange reaction were diluted 100 fold in blocking buffer. Samples were incubated for 1 h at 37° C., washed four times, incubated with 2 ug/ml HRP conjugated anti-β2m for 1h at 37° C., washed again and detected with TMB solution that is stopped with […]. Absorption was measured at 450 nm. Candidate peptides that show a high exchange yield (preferably higher than 50%, most preferred higher than 75%) are generally preferred for a generation and production of antibodies or fragments thereof, and/or T cell receptors or fragments thereof, as they show sufficient avidity to the MHC molecules and prevent dissociation of the MHC complexes.
In general terms: ELISA stands for enzyme-linked immunosorbent assay.
As for “195 (AYIKGGWIL; listed as Homo sapiens) [compound 195]”, the “Peptide exchange (MHC class I binding score, peptide exchange yield)” value (shortened to “Peptide exchange”) was “+++ (50%-75% = +++)”. “135 (VYEAMVPLF; listed as Homo sapiens) [compound 135]”: the “Peptide exchange” value is reported as “++++ (>=75% = ++++)”.

On to “284 (DYLKDPVTI; listed as Homo sapiens) [compound 284]”, for which the “Peptide exchange” value is on record as “+++ (50%-75% = +++)”.

As for “300 (TYPSQLPSL; listed as Homo sapiens) [compound 300]”, the “Peptide exchange” value is listed as “+++ (50%-75% = +++)”. As for “251 (VYTKALSSL; listed as Homo sapiens) [compound 251]”, the “Peptide exchange” value was “+++ (50%-75% = +++)”.

For “352 (QYGGDLTNTF; listed as Homo sapiens) [compound 352]”, the “Peptide exchange” value was “+++ (50%-75% = +++)”. As for “173 (QYLEKYYNL; listed as Homo sapiens) [compound 173]”, the “Peptide exchange” value is given as “++++ (>=75% = ++++)”.

With “372 (VYVIEPHSMEF; listed as Homo sapiens) [compound 372]”, the “Peptide exchange” value was “+++ (50%-75% = +++)”. On to “293 (VYPHFSTTNLI; listed as Homo sapiens) [compound 293]”, for which the “Peptide exchange” value is recorded as “++++ (>=75% = ++++)”. With “267 (SFLNIEKTEILF; listed as Homo sapiens) [compound 267]”, the “Peptide exchange” value is on record as “++ (20%-49% = ++)”. Regarding “249 (RYHPTTCTI; listed as Homo sapiens) [compound 249]”, the “Peptide exchange” value is on record as “++++ (>=75% = ++++)”. Consider “233 (QYLTAAALHNL; listed as Homo sapiens) [compound 233]”, for which the “Peptide exchange” value is recorded as “+++ (50%-75% = +++)”. As to “184 (IYSVGAFENF; listed as Homo sapiens) [compound 184]”, the “Peptide exchange” value is “++++ (>=75% = ++++)”. Next, “100 (VYIESRIGTSTSF; listed as Homo sapiens) [compound 100]”: “+++ (50%-75% = +++)”; “308 (TFDGHGVFF; listed as Homo sapiens) [compound 308]”: “+++ (50%-75% = +++)”; “280 (TYNPNLQDKL; listed as Homo sapiens) [compound 280]”: “++++ (>=75% = ++++)”. As to “227 (IYRFITERF; listed as Homo sapiens) [compound 227]”, the “Peptide exchange” value is reported as “+++ (50%-75% = +++)”. In the case of “297 (TYIDTRTVF; listed as Homo sapiens) [compound 297]”, the “Peptide exchange” value was “++++ (>=75% = ++++)”.

Take “290 (KYGDFKLLEF; listed as Homo sapiens) [compound 290]”: the “Peptide exchange” value was “++++ (>=75% = ++++)”.

Regarding “192 (RYSTFSEIF; listed as Homo sapiens) [compound 192]”, the “Peptide exchange” value is “+++ (50%-75% = +++)”. For the substance “196 (GYIRGSWQF; listed as Homo sapiens) [compound 196]”, the “Peptide exchange” value was “++++ (>=75% = ++++)”. Next, “199 (SYLNHLNNL; listed as Homo sapiens) [compound 199]”: “+++ (50%-75% = +++)”. Next, “244 (VHFEDTGKTLLF; listed as Homo sapiens) [compound 244]”: “+++ (50%-75% = +++)”. Next, “377 (QYTPHSHQF; listed as Homo sapiens) [compound 377]”: “+++ (50%-75% = +++)”; “247 (SFTKTSPNF; listed as Homo sapiens) [compound 247]”: “+++ (50%-75% = +++)”. In the case of “313 (KYTHFIQSF; listed as Homo sapiens) [compound 313]”, the “Peptide exchange” value is recorded as “++++ (>=75% = ++++)”. Turning to “232 (YYLSDSPLL; listed as Homo sapiens) [compound 232]”, the “Peptide exchange” value is “+++ (50%-75% = +++)”. As to “374 (VFLPRVTEL; listed as Homo sapiens) [compound 374]”, the “Peptide exchange” value is recorded as “++ (20%-49% = ++)”. On to “253 (IYGFFNENF; listed as Homo sapiens) [compound 253]”, for which the “Peptide exchange” value is given as “+++ (50%-75% = +++)”. In the case of “306 (VYPAEQPQI; listed as Homo sapiens) [compound 306]”, the “Peptide exchange” value was “+++ (50%-75% = +++)”. The result for “210 (IYAGVGEFSF; listed as Homo sapiens) [compound 210]” reads “++++ (>=75% = ++++)”.

For the substance “279 (VWLPASVLF; listed as Homo sapiens) [compound 279]”, the “Peptide exchange” value is given as “+++ (50%-75% = +++)”.

“218 (LYSELNKWSF; listed as Homo sapiens) [compound 218]”: the “Peptide exchange” value is recorded as “+++ (50%-75% = +++)”. Take “291 (YYLGSGRETF; listed as Homo sapiens) [compound 291]”: the “Peptide exchange” value is given as “+++ (50%-75% = +++)”. With “198 (DYVGFTLKI; listed as Homo sapiens) [compound 198]”, the “Peptide exchange” value is listed as “++ (20%-49% = ++)”. As to “113 (IYSFHTLSF; listed as Homo sapiens) [compound 113]”, the “Peptide exchange” value is recorded as “+++ (50%-75% = +++)”.

On to “256 (VFGKSAYLF; listed as Homo sapiens) [compound 256]”, for which the “Peptide exchange” value is listed as “+++ (50%-75% = +++)”.

Consider “153 (VYVPFGGKSMITF; listed as Homo sapiens) [compound 153]”, for which the “Peptide exchange” value is reported as “++++ (>=75% = ++++)”. Next, “296 (SYQVIFQHF; listed as Homo sapiens) [compound 296]”: “++++ (>=75% = ++++)”. Next, “228 (IYQYVADNF; listed as Homo sapiens) [compound 228]”: “+++ (50%-75% = +++)”; “309 (KYYRQTLLF; listed as Homo sapiens) [compound 309]”: “++ (20%-49% = ++)”. On to “294 (RFPVQGTVTF; listed as Homo sapiens) [compound 294]”, for which the “Peptide exchange” value is listed as “+++ (50%-75% = +++)”.

For “178 (NYSSAVQKF; listed as Homo sapiens) [compound 178]”, the “Peptide exchange” value is on record as “+++ (50%-75% = +++)”. For “108 (PYLVVIHTL; listed as Homo sapiens) [compound 108]”, the “Peptide exchange” value is listed as “+++ (50%-75% = +++)”. The result for “289 (FFHEGQYVF; listed as Homo sapiens) [compound 289]” reads “++++ (>=75% = ++++)”; that for “235 (VYKDSIYYI; listed as Homo sapiens) [compound 235]”, “+++ (50%-75% = +++)”. Turning to “141 (SYNGHLTIWF; listed as Homo sapiens) [compound 141]”, the “Peptide exchange” value was “+++ (50%-75% = +++)”. Next, “268 (IFITKALQI; listed as Homo sapiens) [compound 268]”: “++ (20%-49% = ++)”; “301 (KFDDVTMLF; listed as Homo sapiens) [compound 301]”: “++++ (>=75% = ++++)”; “258 (AYAQLGYLL; listed as Homo sapiens) [compound 258]”: “+++ (50%-75% = +++)”. Turning to “123 (VYTPVLEHL; listed as Homo sapiens) [compound 123]”, the “Peptide exchange” value was “++ (20%-49% = ++)”.

On to “266 (KYTDWTEFL; listed as Homo sapiens) [compound 266]”, for which the “Peptide exchange” value is listed as “+++ (50%-75% = +++)”. The result for “154 (VYGVPTPHF; listed as Homo sapiens) [compound 154]” reads “++++ (>=75% = ++++)”; that for “241 (SYVKVLHHL; listed as Homo sapiens) [compound 241]”, “+++ (50%-75% = +++)”; that for “217 (IYISNSIYF; listed as Homo sapiens) [compound 217]”, “++++ (>=75% = ++++)”. Next, “229 (IYQFVADSF; listed as Homo sapiens) [compound 229]”: “+++ (50%-75% = +++)”; “245 (LYPQLFVVL; listed as Homo sapiens) [compound 245]”: “+++ (50%-75% = +++)”.
